Test results published in publication PMC2386126, “The Mycobacterium tuberculosis Rv2540c DNA sequence encodes a bifunctional chorismate synthase” (BMC Biochemistry, 2008).

What was measured:
[1] = biological target: T1, MtCS (chorismate synthase, aroF, Rv2540c) (Mycobacterium tuberculosis, UniProt P9WPY1); assay: biochemical; type: binding; conditions: read-out: dissociation constant
T1 construct: gene aroC

[2] = test system: NC(=O)C1=CN([C@@H]2O[C@H](COP(=O)(O)OP(=O)(O)OC[C@H]3O[C@@H](n4cnc5c(N)ncnc54)[C@H](O)[C@@H]3O)[C@@H](O)[C@H]2O)C=CC1; assay: purified protein; conditions: apparent, holoenzyme preincubated with 40 μM FMNox, no EPSP, 50 mM Tris-HCl pH 7.8, 25°C

T1 sequence (P9WPY1 whole entry, looked up): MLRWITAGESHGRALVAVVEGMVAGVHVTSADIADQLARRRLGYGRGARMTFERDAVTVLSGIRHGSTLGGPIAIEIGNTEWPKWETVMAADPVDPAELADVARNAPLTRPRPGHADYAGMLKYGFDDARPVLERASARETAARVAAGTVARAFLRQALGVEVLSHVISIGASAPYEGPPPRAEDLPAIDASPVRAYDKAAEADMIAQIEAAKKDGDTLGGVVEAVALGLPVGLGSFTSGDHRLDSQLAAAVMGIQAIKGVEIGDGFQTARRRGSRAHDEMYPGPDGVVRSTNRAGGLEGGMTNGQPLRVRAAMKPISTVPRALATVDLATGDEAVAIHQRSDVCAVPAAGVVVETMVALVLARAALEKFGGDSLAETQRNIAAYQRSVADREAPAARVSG

Compound | Kd [1] [µM] | Km [2] [µM]
NC(=O)C1=CN([C@@H]2O[C@H](COP(=O)(O)OP(=O)(O)OC[C@H]3O[C@@H](n4cnc5c(N)ncnc54)[C@H](O)[C@@H]3O)[C@@H](O)[C@H]2O)C=CC1 [NADH] | 156 ± 12 | –
MtCS (chorismate synthase, aroF, Rv2540c) (Mycobacterium tuberculosis H37Rv) | – | 36 ± 4
